# Laboratory results reported in ChEMBL document CHEMBL1201862, “PubChem BioAssay data set” (2004).
#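 Cultured in 96-well plates, cells were exposed to test compound for 48 hours across five concentrations. At the GI50, growth is halved.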 The source made the active and inactive calls. Cut-off read from the data, not from the text of the source: active = GI50 up to about 1.1 µM and inactive = higher.
# Legend:
# Assay in all cases: inhibition of tumour cell growth, NCI panel, 48 h
# KM-20L2 = system: KM-20L2
# EKVX = system: EKVX
# HOP-92 = system: HOP-92
# UACC-257 = system: UACC-257
# A498 = system: A498
# NCI-H226 = system: NCI-H226
# A549 = system: A549
# UACC-62 = system: UACC-62
# HL-60 = system: HL-60
# SF-295 = system: SF-295
# SK-MEL-5 = system: SK-MEL-5
# MOLT-4 = system: MOLT-4
# TK-10 = system: TK-10
# M14 = system: M14
# U-251 = system: U-251
# CAKI-1 = system: CAKI-1
# SR = system: SR
# MDA-MB-435 = system: MDA-MB-435
# MDA-MB-231 = system: MDA-MB-231
# BT-549 = system: BT-549
Compound,GI50 (KM-20L2),GI50 (EKVX),GI50 (HOP-92),GI50 (UACC-257),GI50 (A498),GI50 (NCI-H226),GI50 (A549),GI50 (UACC-62),GI50 (HL-60),GI50 (SF-295),GI50 (SK-MEL-5),GI50 (MOLT-4),GI50 (TK-10),GI50 (M14),GI50 (U-251),GI50 (CAKI-1),GI50 (SR),GI50 (MDA-MB-435),GI50 (MDA-MB-231),GI50 (BT-549)
O=C(NCCCC/N=c1/cccccc1NCCCCNC(=O)OCc1ccccc1)OCc1ccccc1,11 µM (inactive),22.9 µM (inactive),3.14 µM (inactive),15.2 µM (inactive),> 10 µM (inactive),16.4 µM (inactive),26.5 µM (inactive),19.4 µM (inactive),13.2 µM (inactive),13.5 µM (inactive),16.4 µM (inactive),15.3 µM (inactive),19.2 µM (inactive),14.5 µM (inactive),16.1 µM (inactive),20.9 µM (inactive),,,,
OCC1OC2c3ccccc3COC2C1OCc1ccccc1 (stereo unspecified),> 100 µM (inactive),> 100 µM (inactive),,37 µM (inactive),,> 100 µM (inactive),> 100 µM (inactive),69.5 µM (inactive),,88.9 µM (inactive),38.1 µM (inactive),> 100 µM (inactive),> 100 µM (inactive),> 100 µM (inactive),> 100 µM (inactive),96.8 µM (inactive),> 100 µM (inactive),,,
N#C/C(=C\c1cc(OCc2ccccc2)c(OCc2ccccc2)cn1)C(N)=O,> 100 µM (inactive),> 100 µM (inactive),85.7 µM (inactive),> 100 µM (inactive),> 100 µM (inactive),> 100 µM (inactive),> 100 µM (inactive),> 100 µM (inactive),16 µM (inactive),> 100 µM (inactive),> 100 µM (inactive),23.3 µM (inactive),> 100 µM (inactive),> 100 µM (inactive),> 100 µM (inactive),> 100 µM (inactive),,,,
OCC(O)C(O)C(O)c1nn(-c2ccc(F)cc2)c2nc3cc(Cl)c(Cl)cc3nc12 (stereo unspecified),49.7 µM (inactive),18.9 µM (inactive),,21.4 µM (inactive),,24.2 µM (inactive),13.3 µM (inactive),16.9 µM (inactive),> 100 µM (inactive),29.1 µM (inactive),,18.8 µM (inactive),21.5 µM (inactive),18.2 µM (inactive),29.8 µM (inactive),21.7 µM (inactive),,,,
O=C1C2CC=CCC2C(=O)C12CCc1ccccc12 (stereo unspecified),> 100 µM (inactive),> 100 µM (inactive),> 100 µM (inactive),,,,> 100 µM (inactive),> 100 µM (inactive),74.6 µM (inactive),> 100 µM (inactive),,,> 100 µM (inactive),> 100 µM (inactive),> 100 µM (inactive),> 100 µM (inactive),,,,
Brc1cc(C2OCCCO2)ccc1OCc1ccccc1,> 10 µM (inactive),52.8 µM (inactive),33.6 µM (inactive),31.9 µM (inactive),> 100 µM (inactive),73.1 µM (inactive),64.6 µM (inactive),47.9 µM (inactive),25.2 µM (inactive),52.8 µM (inactive),27.2 µM (inactive),24.9 µM (inactive),40.7 µM (inactive),33.5 µM (inactive),,54 µM (inactive),,,,
C1=N\c2ccc(cc2)/N=C\c2ccccc2OCc2cccc(n2)COc2ccccc2/1,,> 100 µM (inactive),> 100 µM (inactive),> 100 µM (inactive),> 100 µM (inactive),> 100 µM (inactive),> 100 µM (inactive),> 100 µM (inactive),> 100 µM (inactive),76.9 µM (inactive),> 100 µM (inactive),> 100 µM (inactive),> 100 µM (inactive),> 100 µM (inactive),45 µM (inactive),> 100 µM (inactive),> 100 µM (inactive),> 100 µM (inactive),78.3 µM (inactive),> 100 µM (inactive)
Cc1nc2nnnn2c2c1C(=O)Nc1ccccc1N2,> 100 µM (inactive),79.8 µM (inactive),> 100 µM (inactive),> 100 µM (inactive),,> 100 µM (inactive),62.1 µM (inactive),> 100 µM (inactive),> 100 µM (inactive),> 100 µM (inactive),,43.2 µM (inactive),> 100 µM (inactive),> 100 µM (inactive),> 100 µM (inactive),,18.7 µM (inactive),,,
Cc1ccc(/N=C2\N=C(N3CC(C)OC(C)C3)c3ccccc32)cc1 (stereo unspecified),27.5 µM (inactive),32.6 µM (inactive),1.41 µM (inactive),22.7 µM (inactive),26.6 µM (inactive),29 µM (inactive),39.9 µM (inactive),29.6 µM (inactive),,29.9 µM (inactive),23.6 µM (inactive),20.1 µM (inactive),34.2 µM (inactive),19.3 µM (inactive),39.4 µM (inactive),20.4 µM (inactive),,,,
NC1(CCCCCCCCCCC(=O)O)CNCCNCCNCCNC1,24.9 µM (inactive),94.6 µM (inactive),,> 100 µM (inactive),13.7 µM (inactive),,57.5 µM (inactive),47.6 µM (inactive),15.9 µM (inactive),> 100 µM (inactive),38.9 µM (inactive),30.2 µM (inactive),31.2 µM (inactive),75.3 µM (inactive),,84.1 µM (inactive),22.7 µM (inactive),,,
O=C1c2ccccc2-c2ccc(NC(=O)C3CCCCC3C(=O)O)cc21 (stereo unspecified),,> 100 µM (inactive),> 100 µM (inactive),> 100 µM (inactive),> 100 µM (inactive),> 100 µM (inactive),> 100 µM (inactive),> 100 µM (inactive),> 100 µM (inactive),> 100 µM (inactive),> 100 µM (inactive),> 100 µM (inactive),> 100 µM (inactive),> 100 µM (inactive),> 100 µM (inactive),> 100 µM (inactive),> 100 µM (inactive),> 100 µM (inactive),> 100 µM (inactive),> 100 µM (inactive)
O=C1C=CC(=O)C(CNc2ccc(C(=O)OC34CC5CC(CC(C5)C3)C4)cc2)=C1,,6.53 µM (inactive),3.28 µM (inactive),6.04 µM (inactive),11.7 µM (inactive),2 µM (inactive),16.1 µM (inactive),5.14 µM (inactive),1.53 µM (inactive),16.6 µM (inactive),4.38 µM (inactive),1.51 µM (inactive),11.5 µM (inactive),12.6 µM (inactive),4.06 µM (inactive),0.753 µM (active),3.81 µM (inactive),5.93 µM (inactive),14 µM (inactive),5.12 µM (inactive)
CN(C)c1ccc(/C=C(/C(=O)O)c2csc(-c3nc(/C(=C\c4ccc(N(C)C)cc4)C(=O)O)cs3)n2)cc1,> 100 µM (inactive),> 100 µM (inactive),> 100 µM (inactive),> 100 µM (inactive),> 100 µM (inactive),> 100 µM (inactive),> 100 µM (inactive),80.9 µM (inactive),43 µM (inactive),> 100 µM (inactive),86.5 µM (inactive),58.6 µM (inactive),> 100 µM (inactive),> 100 µM (inactive),> 100 µM (inactive),> 100 µM (inactive),,,,
